According to patent US9062124B2, “GIP-based mixed agonists for treatment of metabolic disorders and obesity” (priority 2008, dated 2015):
pEC50: −log10 of the molar value. *1 amine or outer side, *2 acyl side, *3 side chain or, on linkers, in order; H or OH if unused. Where a SMILES comes first, the peptide text is derived from it. Bridges are numbered along the chain shown (N, C = ends). Where no end group is shown, it is not given here. Side-chain parts run from the residue outwards. [ ]: non-standard residue; d: D form. The star is where a group is joined. PEG 40 kDa = PEG (40 kDa) covalently attached to Cys; γGlu = O=C(O)[C@H](CCC(=O)[*:2])N[*:1]; Stearoyl = CCCCCCCCCCCCCCCCCC(=O)*; Palmitoyl = CCCCCCCCCCCCCCCC(=O)*; Myristoyl = CCCCCCCCCCCCCC(=O)*; Aib = CC(C)(N)C(=O)O

How the values were obtained:
GIP receptor = molecular target: T1, GIP receptor (Homo sapiens, UniProt P48546); assay: cAMP synthesis functional assay (firefly luciferase reporter in HEK293 cells), GIP receptor; assay type: cell-based; conditions: for pEC50: GIP Receptor EC50, cAMP luciferase reporter assay as in Example 16; for % activity at the GIP receptor: Table 5
T1 construct: expressed in transfected cells; host or cells: HEK293
T1 sequence (P48546 22-466): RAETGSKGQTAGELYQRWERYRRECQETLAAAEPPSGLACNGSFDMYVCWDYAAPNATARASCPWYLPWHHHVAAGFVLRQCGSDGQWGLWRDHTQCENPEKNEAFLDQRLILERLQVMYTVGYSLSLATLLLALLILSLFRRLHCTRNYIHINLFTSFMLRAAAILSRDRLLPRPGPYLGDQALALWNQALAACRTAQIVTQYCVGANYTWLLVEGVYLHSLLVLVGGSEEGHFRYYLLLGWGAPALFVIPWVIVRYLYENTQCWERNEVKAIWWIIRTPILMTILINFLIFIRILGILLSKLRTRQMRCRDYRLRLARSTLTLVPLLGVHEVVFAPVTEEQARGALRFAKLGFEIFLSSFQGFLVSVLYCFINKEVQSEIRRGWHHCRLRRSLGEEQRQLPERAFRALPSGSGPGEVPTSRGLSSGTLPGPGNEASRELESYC

[1] = test system: glucagon receptor, GLP-1 receptor or GIP receptor; assay: Agonist profile across receptors assigned from the cAMP reporter assay data; assay type: cell-based; conditions: assigned from the in vitro EC50 data of Tables 1-4
[2] = Body weight of mice after peptide injection; conditions: DIO mice; for body weight: Example 31, subcutaneous daily for 1 week
glucagon receptor = molecular target: T2, glucagon receptor (Homo sapiens, UniProt P47871); assay: cAMP synthesis functional assay (firefly luciferase reporter in HEK293 cells), glucagon receptor; assay type: cell-based; conditions: for pEC50: Glucagon Receptor EC50, cAMP luciferase reporter assay as in Example 16; for % activity at the glucagon receptor: Table 5
T2 construct: expressed in transfected cells; host or cells: HEK293

GLP-1 receptor = molecular target: T3, GLP-1 receptor (Homo sapiens, UniProt P43220); assay: cAMP synthesis functional assay (firefly luciferase reporter in HEK293 cells), GLP-1 receptor; assay type: cell-based; conditions: for % activity at the GLP-1 receptor: Table 5
T3 construct: expressed in transfected cells; host or cells: HEK293

[3] = relative to the standard (Std.) EC50 of the same run
[4] = Table 4, relative to the native hormone

T2 sequence (P47871 26-477): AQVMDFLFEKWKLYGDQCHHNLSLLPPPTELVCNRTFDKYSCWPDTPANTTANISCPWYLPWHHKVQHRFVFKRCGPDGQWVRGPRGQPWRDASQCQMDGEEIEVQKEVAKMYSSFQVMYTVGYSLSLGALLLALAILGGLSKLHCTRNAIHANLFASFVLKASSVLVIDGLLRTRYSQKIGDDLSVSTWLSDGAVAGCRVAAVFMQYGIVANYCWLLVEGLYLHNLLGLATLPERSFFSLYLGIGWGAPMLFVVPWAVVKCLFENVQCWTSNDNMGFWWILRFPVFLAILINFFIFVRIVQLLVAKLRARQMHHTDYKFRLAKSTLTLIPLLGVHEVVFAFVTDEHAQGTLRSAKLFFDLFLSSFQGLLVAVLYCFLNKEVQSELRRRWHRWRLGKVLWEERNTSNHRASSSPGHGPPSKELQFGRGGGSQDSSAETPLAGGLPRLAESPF
T3 sequence (P43220 24-463, species assumed): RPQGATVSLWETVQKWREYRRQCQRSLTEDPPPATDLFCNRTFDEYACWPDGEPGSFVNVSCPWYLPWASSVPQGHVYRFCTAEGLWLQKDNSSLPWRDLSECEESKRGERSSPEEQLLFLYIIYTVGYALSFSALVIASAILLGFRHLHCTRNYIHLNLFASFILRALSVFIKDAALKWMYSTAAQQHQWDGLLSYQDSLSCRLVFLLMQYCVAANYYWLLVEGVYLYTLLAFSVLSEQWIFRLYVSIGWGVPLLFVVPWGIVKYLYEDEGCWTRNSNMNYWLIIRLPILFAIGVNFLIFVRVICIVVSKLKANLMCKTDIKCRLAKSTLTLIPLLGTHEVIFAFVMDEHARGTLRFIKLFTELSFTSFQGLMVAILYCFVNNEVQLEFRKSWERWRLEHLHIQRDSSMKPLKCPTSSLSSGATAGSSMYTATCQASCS

Row | Compound | pEC50 (GIP receptor) | % activity at the GIP receptor (GIP receptor; relative to the native hormone) [%] | GIP Receptor relative activity (GIP receptor; [3]) [%] | receptor activity profile (glucagon / GLP-1 / GIP agonism) [1] | body weight ([2]; 10 nmol/kg) | pEC50 (glucagon receptor) | % activity at the glucagon receptor (glucagon receptor; relative to the native hormone) [%] | Glucagon Receptor relative activity (glucagon receptor; [3]) [%] | % activity at the GLP-1 receptor (GLP-1 receptor; relative to the native hormone) [%] | GLP-1 Receptor relative activity (GLP-1 receptor; [3]) [%] | GIP Receptor relative activity (GIP receptor; [4]) [%] | % Relative activity at the Receptor for GIP (GIP receptor; Table 8) [%] | total change in body weight (weight loss, decrease) ([2]; Example 41, subcutaneous daily for 7 days, 10 nmol/kg, Day 7) [%] | EC50 (glucagon receptor; Glucagon Receptor EC50, nM, Table 4) [nM] | Glucagon Receptor relative activity (glucagon receptor; [4]) [%] | % Relative activity at the Receptor for Glucagon (glucagon receptor; Table 8) [%] | GLP-1 Receptor relative activity (GLP-1 receptor; [4]) [%] | % Relative activity at the Receptor for GLP-1 (GLP-1 receptor; Table 8) [%] | reduction of body weight ([2]; Example 22, subcutaneous QW, 70 or 210 nmol/kg/week)
1 | CCCCCCCCCCCCCCCCCC(=O)NCCCC[C@H](NC(=O)[C@H](CO)NC(=O)[C@@H]1CCCN1C(=O)[C@@H]1CCCN1C(=O)[C@@H]1CCCN1C(=O)[C@H](C)NC(=O)CNC(=O)[C@H](CO)NC(=O)[C@H](CO)NC(=O)[C@@H]1CCCN1C(=O)CNC(=O)CNC(=O)[C@H](C)NC(=O)[C@H](CC(C)C)NC(=O)[C@H](CC(C)C)NC(=O)[C@H](Cc1c[nH]c2ccccc12)NC(=O)[C@H](CC(N)=O)NC(=O)[C@@H](NC(=O)[C@H](Cc1ccccc1)NC(=O)[C@H](CCC(=O)O)NC(=O)C(C)(C)NC(=O)[C@H](C)NC(=O)[C@H](C)NC(=O)[C@H](CCC(N)=O)NC(=O)[C@H](CCCCN)NC(=O)[C@H](CC(=O)O)NC(=O)[C@H](CC(C)C)NC(=O)[C@H](Cc1ccc(O)cc1)NC(=O)[C@@H](NC(=O)[C@H](CO)NC(=O)[C@H](Cc1ccc(O)cc1)NC(=O)[C@H](CC(=O)O)NC(=O)[C@H](CO)NC(=O)[C@@H](NC(=O)[C@H](Cc1ccccc1)NC(=O)[C@@H](NC(=O)CNC(=O)[C@H](CCC(N)=O)NC(=O)C(C)(C)NC(=O)[C@@H](N)Cc1ccc(O)cc1)[C@@H](C)O)[C@@H](C)O)[C@@H](C)CC)C(C)C)C(N)=O [mt-279] (H-Y[Aib]QGTFTSDYSIYLDKQAA[Aib]EFVNWLLAGGPSSGAPPPSK(Stearoyl)-NH2; N-terminus assumed) | 11.35 | 527 | 526.67 | exhibited activity at the GIP, GLP-1, and glucagon receptors | caused significant weight loss in the mice | 11.16 | 733 | 733.33 | 420 | 419.57 |  |  |  |  |  |  |  |  | 
2 | CCCCCCCCCCCCCCCC(=O)NCCCC[C@H](NC(=O)[C@H](CO)NC(=O)[C@@H]1CCCN1C(=O)[C@@H]1CCCN1C(=O)[C@@H]1CCCN1C(=O)[C@H](C)NC(=O)CNC(=O)[C@H](CO)NC(=O)[C@H](CO)NC(=O)[C@@H]1CCCN1C(=O)CNC(=O)CNC(=O)[C@H](C)NC(=O)[C@H](CC(C)C)NC(=O)[C@H](CC(C)C)NC(=O)[C@H](Cc1c[nH]c2ccccc12)NC(=O)[C@H](CC(N)=O)NC(=O)[C@@H](NC(=O)[C@H](Cc1ccccc1)NC(=O)[C@H](CCC(=O)O)NC(=O)C(C)(C)NC(=O)[C@H](C)NC(=O)[C@H](C)NC(=O)[C@H](CCC(N)=O)NC(=O)[C@H](CCCCN)NC(=O)[C@H](CC(=O)O)NC(=O)[C@H](CC(C)C)NC(=O)[C@H](Cc1ccc(O)cc1)NC(=O)[C@@H](NC(=O)[C@H](CO)NC(=O)[C@H](Cc1ccc(O)cc1)NC(=O)[C@H](CC(=O)O)NC(=O)[C@H](CO)NC(=O)[C@@H](NC(=O)[C@H](Cc1ccccc1)NC(=O)[C@@H](NC(=O)CNC(=O)[C@H](CCC(N)=O)NC(=O)C(C)(C)NC(=O)[C@@H](N)Cc1ccc(O)cc1)[C@@H](C)O)[C@@H](C)O)[C@@H](C)CC)C(C)C)C(N)=O [mt-278] (H-Y[Aib]QGTFTSDYSIYLDKQAA[Aib]EFVNWLLAGGPSSGAPPPSK(Palmitoyl)-NH2; N-terminus assumed) | 11.55 | 846 | 846.43 | exhibited activity at the GIP, GLP-1, and glucagon receptors | caused significant weight loss in the mice | 11.07 | 588 | 588.37 | 460 | 459.52 |  |  |  |  |  |  |  |  | 
3 | CCCCCCCCCCCCCC(=O)NCCCC[C@H](NC(=O)[C@H](CO)NC(=O)[C@@H]1CCCN1C(=O)[C@@H]1CCCN1C(=O)[C@@H]1CCCN1C(=O)[C@H](C)NC(=O)CNC(=O)[C@H](CO)NC(=O)[C@H](CO)NC(=O)[C@@H]1CCCN1C(=O)CNC(=O)CNC(=O)[C@H](C)NC(=O)[C@H](CC(C)C)NC(=O)[C@H](CC(C)C)NC(=O)[C@H](Cc1c[nH]c2ccccc12)NC(=O)[C@H](CC(N)=O)NC(=O)[C@@H](NC(=O)[C@H](Cc1ccccc1)NC(=O)[C@H](CCC(=O)O)NC(=O)C(C)(C)NC(=O)[C@H](C)NC(=O)[C@H](C)NC(=O)[C@H](CCC(N)=O)NC(=O)[C@H](CCCCN)NC(=O)[C@H](CC(=O)O)NC(=O)[C@H](CC(C)C)NC(=O)[C@H](Cc1ccc(O)cc1)NC(=O)[C@@H](NC(=O)[C@H](CO)NC(=O)[C@H](Cc1ccc(O)cc1)NC(=O)[C@H](CC(=O)O)NC(=O)[C@H](CO)NC(=O)[C@@H](NC(=O)[C@H](Cc1ccccc1)NC(=O)[C@@H](NC(=O)CNC(=O)[C@H](CCC(N)=O)NC(=O)C(C)(C)NC(=O)[C@@H](N)Cc1ccc(O)cc1)[C@@H](C)O)[C@@H](C)O)[C@@H](C)CC)C(C)C)C(N)=O [mt-277] (H-Y[Aib]QGTFTSDYSIYLDKQAA[Aib]EFVNWLLAGGPSSGAPPPSK(Myristoyl)-NH2; N-terminus assumed) |  | 446 | 455.77 | exhibited activity at the GIP, GLP-1, and glucagon receptors | caused significant weight loss in the mice | 10.67 | 235 | 235.35 | 224 | 224.42 |  |  |  |  |  |  |  |  | 
4 | CCCCCCCCCCCCCCCC(=O)N[C@@H](CCC(=O)N[C@@H](CCC(=O)NCCCC[C@H](NC(=O)[C@H](CO)NC(=O)[C@@H]1CCCN1C(=O)[C@@H]1CCCN1C(=O)[C@@H]1CCCN1C(=O)[C@H](C)NC(=O)CNC(=O)[C@H](CO)NC(=O)[C@H](CO)NC(=O)[C@@H]1CCCN1C(=O)CNC(=O)CNC(=O)[C@H](C)NC(=O)[C@H](CC(C)C)NC(=O)[C@H](CC(C)C)NC(=O)[C@H](Cc1c[nH]c2ccccc12)NC(=O)[C@H](CC(N)=O)NC(=O)[C@@H](NC(=O)[C@H](Cc1ccccc1)NC(=O)[C@H](CCC(=O)O)NC(=O)C(C)(C)NC(=O)[C@H](C)NC(=O)[C@H](C)NC(=O)[C@H](CCC(N)=O)NC(=O)[C@H](CCCCN)NC(=O)[C@H](CC(=O)O)NC(=O)[C@H](CC(C)C)NC(=O)[C@H](Cc1ccc(O)cc1)NC(=O)[C@@H](NC(=O)[C@H](CO)NC(=O)[C@H](Cc1ccc(O)cc1)NC(=O)[C@H](CC(=O)O)NC(=O)[C@H](CO)NC(=O)[C@@H](NC(=O)[C@H](Cc1ccccc1)NC(=O)[C@@H](NC(=O)CNC(=O)[C@H](CCC(N)=O)NC(=O)C(C)(C)NC(=O)[C@@H](N)Cc1ccc(O)cc1)[C@@H](C)O)[C@@H](C)O)[C@@H](C)CC)C(C)C)C(N)=O)C(=O)O)C(=O)O [mt-368] (H-Y[Aib]QGTFTSDYSIYLDKQAA[Aib]EFVNWLLAGGPSSGAPPPSK([γGlu-γGlu-Palmitoyl])-NH2; N-terminus assumed) |  |  |  |  |  |  |  |  |  |  | 296.07 | 296.07 | ~22 | 0.0069 | 491.82 | 491.82 | 418.93 | 418.93 | 
5 | mt-170: lactam-containing GLP-1/GIP/glucagon triagonist peptide, C-terminal amide (Y[Aib]QGTFTSDYSIYLDEQAAKEFVNWLLAGGPSSGAPPPSC(PEG 40 kDa)-NH2; lactam 16-20) |  |  |  | exemplary GLP-1/GIP/glucagon triagonist peptides |  |  |  |  |  |  |  |  |  |  |  |  |  |  | a little more effective at reducing body weight in the mice as Chimera 2 AIB2, but not as effective as Chimera 2 AIB2 lactam
